Each structure is given as a SMILES string. pIC50: −log10 of the molar value. The source made the active and inactive calls. No cut-off for these calls is given here.

One series relates to RAW264.7. Briefly: Cytotoxicity against mouse RAW264.7 cells assessed as reduction in cell viability at 6.25 to 100 uM after 24 hrs by EZ-Cytox cell viability assay. It counts as cell-based. To be noted: raw264.7, 24 h.
Consider `O=C1c2c(O)cc(O[C@@H]3O[C@H](CO)[C@@H](O)[C@H](O)[C@H]3O)cc2O[C@H](c2ccc(O)c(O)c2)[C@H]1O`, for which the Activity result is given as “Non-Toxic”.
Regarding `COc1cc(/C=C/CO)cc(OC)c1O[C@@H]1O[C@H](CO)[C@@H](O)[C@H](O)[C@H]1O` [SYRINGIN], the Activity entry is “Non-Toxic”.
As for `CC1=CC(=O)CC(C)(C)[C@H]1CC[C@@H](CO)O[C@@H]1O[C@H](CO)[C@@H](O)[C@H](O)[C@H]1O`, the Activity entry was “Non-Toxic”.
In the case of `CC1=CC(=O)CC(C)(C)[C@@]1(O)/C=C/[C@H](C)O[C@@H]1O[C@H](CO)[C@@H](O)[C@H](O)[C@H]1O` [6S,9S-ROSEOSIDE], the Activity entry is reported as “Non-Toxic”.
For `COc1cc([C@H]2OC[C@H]3[C@@H]2CO[C@@H]3c2cc(OC)c(O[C@@H]3O[C@H](CO)[C@@H](O)[C@H](O)[C@H]3O)c(OC)c2)cc(OC)c1O`, the Activity result is reported as “Non-Toxic”.
Regarding `COc1cc(/C=C/C(=O)O)cc(OC)c1O[C@@H]1O[C@H](CO)[C@@H](O)[C@H](O)[C@H]1O`, the Activity result was “Non-Toxic”.
Turning to `COc1cc(-c2oc3cc(O)cc(O)c3c(=O)c2O[C@@H]2O[C@H](CO)[C@@H](O)[C@H](O)[C@H]2O)ccc1O[C@@H]1O[C@H](CO)[C@@H](O)[C@H](O)[C@H]1O`, the Activity entry is listed as “Non-Toxic”.
On to `CC1=CC(=O)CC(C)(C)[C@@]1(O)/C=C/[C@H](CO)O[C@@H]1O[C@H](CO)[C@@H](O)[C@H](O)[C@H]1O`, for which the Activity entry is reported as “Non-Toxic”.
As to `O=C1C[C@@H](c2cc(O)cc(O)c2)Oc2cc(O)cc(O)c21`, the Activity result was “Non-Toxic”.
On to `O=C1c2c(O)cc(O)cc2O[C@H](c2ccc(O)c(O)c2)[C@H]1O` [(+)-TAXIFOLIN], for which the Activity result is “Non-Toxic”.
Turning to `COc1cc(-c2oc3cc(O)cc(O)c3c(=O)c2O[C@@H]2O[C@H](CO[C@@H]3O[C@@H](C)[C@H](O)[C@@H](O)[C@H]3O)[C@@H](O)[C@H](O)[C@H]2O)ccc1O` [NARCISSIN], the Activity result is “Non-Toxic”.
For `COc1cc(/C=C/C(=O)O[C@@H]2O[C@H](CO)[C@@H](O)[C@H](O)[C@H]2O)ccc1O`, the Activity result was “Non-Toxic”.
As for `CC1=CC(=O)CC(C)(C)[C@H]1CC[C@@H](O)CO`, the Activity result is given as “Non-Toxic”.
`CC(C)(O)c1ccc(CO[C@@H]2O[C@H](CO)[C@@H](O)[C@H](O)[C@H]2O)cc1`: the Activity entry was “Non-Toxic”.
Take `CC1=CC(=O)CC(C)(C)[C@H]1CC[C@@H](O)CO[C@@H]1O[C@H](CO)[C@@H](O)[C@H](O)[C@H]1O`: the Activity result was “Non-Toxic”.
Turning to `COc1cc(-c2oc3cc(O)cc(O)c3c(=O)c2O[C@@H]2O[C@H](CO)[C@@H](O)[C@H](O)[C@H]2O)ccc1O`, the Activity result is “Non-Toxic”.
On to `CC1=CC(=O)CC(C)(C)[C@H]1/C=C/[C@@H](CO)O[C@@H]1O[C@H](CO)[C@@H](O)[C@H](O)[C@H]1O`, for which the Activity result is recorded as “Non-Toxic”.
As for `COc1cc(C(C)=O)ccc1O[C@@H]1O[C@H](CO)[C@@H](O)[C@H](O)[C@H]1O` [ANDROSIN], the Activity result is “Non-Toxic”.
`C[C@@H](/C=C/[C@H]1C(CO)=CC(=O)CC1(C)C)O[C@@H]1O[C@H](CO)[C@@H](O)[C@H](O)[C@H]1O`: the Activity entry was “Non-Toxic”.
As to `CC1=CC(=O)CC(C)(C)[C@@H]1/C=C/[C@H](CO)O[C@@H]1O[C@H](CO)[C@@H](O)[C@H](O)[C@H]1O`, the Activity entry is “Non-Toxic”.
On to `O=C1c2c(O)cc(O)cc2O[C@H](c2ccc(O)cc2)[C@H]1O` [DIHYDROKAEMPFEROL], for which the Activity result is “Non-Toxic”.

In another series the test system is RAW264.7. Briefly: Inhibition of LPS-induced NO production in mouse RAW264.7 cells by Griess reagent based assay.
Conditions: not given
It counts as functional, cell-based. (In general: Nitrite, measured by Griess reagent, commonly stands in for NO production.)
For the compound `O=c1c(O)c(-c2ccc(O)c(O)c2)oc2cc(O)cc(O)c12` [QUERCETIN], the pIC50 (commonly −log10 of the IC50, conventionally taken in molar units) is 4.64.
`O=C1c2c(O)cc(O[C@@H]3O[C@H](CO)[C@@H](O)[C@H](O)[C@H]3O)cc2O[C@H](c2ccc(O)c(O)c2)[C@H]1O`: the pIC50 is 4.36 and the inhibition entry is “Dose-dependent effect”.
Take `O=C1c2c(O)cc(O)cc2O[C@H](c2ccc(O)c(O)c2)[C@H]1O` [(+)-TAXIFOLIN]: the pIC50 was 4.09 and the inhibition result is “Dose-dependent effect”.

A further series relates to RAW264.7. Briefly: Antiinflammatory activity against mouse RAW264.7 cells assessed as reduction in LPS-induced iNOS protein expression at 25 to 100 uM after 24 hrs by Western blot analysis. It counts as functional, cell-based.
Conditions: not given
A general note: A western blot detects proteins with antibodies after separation by electrophoresis.
As for `O=C1c2c(O)cc(O)cc2O[C@H](c2ccc(O)c(O)c2)[C@H]1O` [(+)-TAXIFOLIN], the result was Active.

Another series relates to RAW264.7. Briefly: Antiinflammatory activity against mouse RAW264.7 cells assessed as reduction in LPS-induced iNOS protein expression at 10 to 50 uM after 24 hrs by Western blot analysis. It counts as functional, cell-based.
Conditions: not given
On to `O=C1c2c(O)cc(O[C@@H]3O[C@H](CO)[C@@H](O)[C@H](O)[C@H]3O)cc2O[C@H](c2ccc(O)c(O)c2)[C@H]1O`, for which the outcome was Active.

Values taken from ChEMBL document CHEMBL4613256, “Megastigmane Derivatives from the Cladodes of Opuntia humifusa and Their Nitric Oxide Inhibitory Activities in Macrophages” (J Nat Prod, 2020).
